Columns and labels:
[1] = test system: Naïve CD4+ T human cells; assay: Cellular assay for FoxP3 induction activity (qPCR of FoxP3 mRNA); format: cell-based; details: CD4+ T cells activated with anti-CD3, IL-2 and TGF-β for 5 days; FoxP3 mRNA by qPCR on day 5; FIG. 3
Experimental: CD4+CD25+FOXP3+ regulatory T cells (Tregs) suppress pro-inflammatory cells and signals and are critical mediators of tolerance, inhibiting excessive inflammation and autoimmunity. Also, treatment of CD4+ T cells with interleukin 2 (IL-2) and transforming growth factor beta (TGF-β) signaling are important for FOXP3 induction and Treg formation.
Naïve CD4+ T human cells (cat. no 2W-200, Lonza) were cultured and activated with artificial antigen-presenting cells and soluble anti-CD3 (100 ng/ml) in the presence of IL-2 (300 U/ml) and TGF-β (10 ng/ml) for 5 days. On day 3, cells were transfected with an anti-sense RNA against JMJD3 (cat. No 1299001, Thermo) using Lipofectamine 2000 (cat. No 11668027, Thermo). On day 5, RNA was extracted and qPCR analysis was performed to evaluate FoxP3 mRNA levels by using the following primers: F: 5′-TCCACAACATGCGACCCCCTTTCA-3′ and R: 5′-ACAGCCCCCTTCTCGCTCTCCA-3′ having a 217 bp product. All JMJD3 inhibitors (99, 92, 93, 98, and 95) in CD4+ T cells induced 7-fold FoxP3 expression levels, thus moving towards differentiation and formation of Tregs. […] Thus, genetic or pharmacological inhibition of […] will result into FoxP3 activation and induction of Treg formation. Based on this evidence, JMJD3 inhibitors (99, 92, 93, 98, and 95)) could be used in autoimmune diseases where T-regulatory cells have therapeutic potential. There is increasing evidence and literature derived from human clinical studies (Arellano B et al., Regulatory T Cell-based Therapies for Autoimmunity, Discov Med, 22:73-80, 2016).

[2] = test system: THP-1 human monocytes; assay: Cellular assay for anti-inflammatory properties: cytokine ELISA multiplex in LPS-stimulated PMA-differentiated THP-1 macrophages; format: cell-based; details: 1 μM, 4 hours before 100 ng/mL LPS for 4 or 24 hours; cytokine protein in media vs LPS+PMA only
Experimental: The anti-inflammatory properties of five JMJD3 inhibitors (99, 92, 93, 98, and 95, in no particularly order) were evaluated in an immune cellular assay targeting key pro-inflammatory cytokines involved in the pathogenesis of multiple autoimmune disease.
Specifically, THP-1 human monocytes were grown in 6-well plates (RPMI 1640+10% FBS+1% P/S). After washing with PBS the THP-1 cells were differentiated into macrophages using 20 nM of phorbol 12-myristate 13-acetate (PMA) for 24 hrs. 99, 92, 93, 98, and 95) (1 μM) were added into the macrophages, which are incubated for 4 hours before the addition of 100 ng/mL lipopolysaccharide (LPS) for either 4 or 24 hours. Next, the macrophages are collected via centrifugation at 1.2K rpm for 5 min and use their media to evaluate cytokine protein levels by using the Bio-rad Cytokine ELISA multiplex assay (cat. No M5000031YV). The supernatants from macrophages treated only with only LPS+PMA were collected and used as negative controls.

[3] = molecular target: JMJD3 (Homo sapiens, UniProt O15054); assay: JMJD3 binding assay (Kd, affinity beads, qPCR readout); details: 11-point 3-fold dilution series, 0.9% DMSO, room temperature 1 hour; read-out: JMJD3 Affinity (binding constant, Kd)
JMJD3, sequence (O15054 whole entry, species assumed): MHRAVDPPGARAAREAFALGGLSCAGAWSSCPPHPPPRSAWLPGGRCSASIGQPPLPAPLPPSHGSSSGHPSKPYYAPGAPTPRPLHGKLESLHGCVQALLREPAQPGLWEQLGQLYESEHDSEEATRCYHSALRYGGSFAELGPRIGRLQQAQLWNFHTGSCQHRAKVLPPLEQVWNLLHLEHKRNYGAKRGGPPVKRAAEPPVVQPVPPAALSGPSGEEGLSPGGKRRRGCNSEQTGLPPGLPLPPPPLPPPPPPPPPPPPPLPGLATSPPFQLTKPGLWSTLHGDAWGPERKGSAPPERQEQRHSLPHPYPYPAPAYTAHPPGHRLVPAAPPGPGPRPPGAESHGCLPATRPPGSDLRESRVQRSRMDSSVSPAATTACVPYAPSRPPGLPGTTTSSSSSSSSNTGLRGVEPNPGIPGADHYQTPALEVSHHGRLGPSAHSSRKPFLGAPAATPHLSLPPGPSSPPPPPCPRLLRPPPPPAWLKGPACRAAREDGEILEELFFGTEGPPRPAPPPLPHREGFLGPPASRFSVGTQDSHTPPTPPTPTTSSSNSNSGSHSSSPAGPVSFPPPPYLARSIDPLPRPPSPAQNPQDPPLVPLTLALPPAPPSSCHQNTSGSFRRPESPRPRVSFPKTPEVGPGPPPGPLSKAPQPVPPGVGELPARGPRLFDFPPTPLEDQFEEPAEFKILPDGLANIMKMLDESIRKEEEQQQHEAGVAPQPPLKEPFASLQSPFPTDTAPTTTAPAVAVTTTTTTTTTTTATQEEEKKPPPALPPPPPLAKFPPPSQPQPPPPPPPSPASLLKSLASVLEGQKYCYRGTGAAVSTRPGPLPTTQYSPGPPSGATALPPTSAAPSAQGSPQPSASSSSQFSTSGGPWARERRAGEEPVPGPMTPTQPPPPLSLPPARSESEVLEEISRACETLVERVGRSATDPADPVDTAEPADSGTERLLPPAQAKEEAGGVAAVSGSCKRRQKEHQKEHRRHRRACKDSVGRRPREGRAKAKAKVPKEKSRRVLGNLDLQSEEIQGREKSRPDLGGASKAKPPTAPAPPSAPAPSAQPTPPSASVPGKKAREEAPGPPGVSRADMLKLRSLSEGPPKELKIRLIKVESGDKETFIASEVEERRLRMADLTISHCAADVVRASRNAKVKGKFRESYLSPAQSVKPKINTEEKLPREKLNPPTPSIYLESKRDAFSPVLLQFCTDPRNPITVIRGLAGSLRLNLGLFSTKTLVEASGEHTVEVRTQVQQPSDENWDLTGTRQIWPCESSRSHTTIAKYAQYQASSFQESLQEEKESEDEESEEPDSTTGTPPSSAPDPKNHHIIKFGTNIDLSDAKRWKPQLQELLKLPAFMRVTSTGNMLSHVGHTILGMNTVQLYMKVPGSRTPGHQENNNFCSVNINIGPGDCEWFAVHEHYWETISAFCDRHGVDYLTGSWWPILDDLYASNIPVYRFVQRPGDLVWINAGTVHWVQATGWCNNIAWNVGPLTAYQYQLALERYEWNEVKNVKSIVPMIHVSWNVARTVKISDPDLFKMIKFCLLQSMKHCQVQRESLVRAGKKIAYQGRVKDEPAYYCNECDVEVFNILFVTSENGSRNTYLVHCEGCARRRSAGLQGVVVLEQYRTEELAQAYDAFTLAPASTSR
Experimental: Test compounds were prepared as 111X stocks in 100% DMSO. Kd values are determined using an 11-point 3-fold compound dilution series with three DMSO control points. All compounds for Kd measurements were distributed by acoustic transfer (non-contact dispensing) in 100% DMSO. The compounds were then diluted directly into the assays such that the final concentration of DMSO was 0.9%. All reactions were performed in polypropylene 384-well plate. Each was a final volume of 0.02 ml. The assay plates were incubated at room temperature with shaking for 1 hour and the affinity beads were washed with wash buffer (lx PBS, 0.05% Tween 20). The beads were then re-suspended in elution buffer (lx PBS, 0.05% Tween 20, 0.5 μM non-biotinylated affinity ligand) and incubated at room temperature with shaking for 30 minutes. The kinase concentration in the eluates was measured by qPCR. Binding constants are calculated with a standard dose-response curve using the Hill equation:
The Hill Slope was set to −1. Curves were fitted using a non-linear least square fit with the Levenberg-Marquardt algorithm. The binding data is summarized in Table 2 where A is less than 100 nM, B is 100 to 500 nM, and C is greater than 500 nM.

[4] = test system: THP-1 human monocytes; assay: TNF-alpha ELISA (Quantikine) in LPS-treated THP-1 cells; format: cell-based; details: 1 μM, 4 hrs before LPS 50 ng/ml; PMA 25 nM; ELISA of supernatants; FIG. 4A-C, p<0.05 / p<0.01
Experimental: THP-1 cells were grown to confluence and plated in 6-well plates. PMA (25 nM) was added to the medium and replaced with non-PMA containing medium 24 hrs later. ATH compounds (1 μM) or vehicle (0.1% DMSO) were added and allowed to incubate. After 4 hrs LPS (50 ng/ml) was added without replacement of the medium and supernatants were collected after 4 and […]. Media were placed on ice for cytokine detection using ELISA (Quantikine, R&D Systems).
JMJD3 inhibitors Compound 89, Compound 91 (FIG. 4A, p<005), Compound 97, Compound 92, Compound 93 (FIG. 4B, p<0.01), and Compound 94 (FIG. 4C, p<0.01) show suppression of TNF-alpha (TNFA) expression after LPS (lipopolysaccharide) treatment, in THP-1 human monocytes (FIG. 4A-C, p<0.05 for both).

SMILES: Fc1cc(F)cc(-c2nc(N3CCNCC3)nc(-n3cccn3)n2)c1 [Compound 99, 2-(3,5-difluorophenyl)-4-(piperazin-1-yl)-6-(1H-pyrazol-1-yl)-1,3,5-triazine]
- FoxP3 expression levels (induction) [1]: 7 fold
- suppression of TNF-alpha (TNFA) [2]: suppression
- suppression of interleukin 1beta (IL1B) [2]: suppression
- suppression of interleukin 5 (IL5) [2]: suppression
- suppression of interleukin 6 (IL6) [2]: suppression
- suppression of interleukin 8 (IL8) [2]: suppression
- suppression of interleukin 13 (IL13) [2]: suppression

SMILES: CCOC(=O)CCNc1nc(N2CCc3ccccc3CC2)nc(-n2cccn2)n1 [Compound 1, Ethyl 3-((4-(1H-pyrazol-1-yl)-6-(1,2,4,5-tetrahydro-3H-benzo[d]azepin-3-yl)-1,3,5-triazin-2-yl)amino)propanoate]
- Kd [3]: < 100 nM

SMILES: COCCNc1nc(-n2cccn2)nc(-n2ccc3ccccc32)n1 [Compound 89, 4-(1H-indol-1-yl)-N-(2-methoxyethyl)-6-(1H-pyrazol-1-yl)-1,3,5-triazin-2-amine]
- suppression of TNF-alpha (TNFA) expression after LPS treatment [4]: suppression
- Kd [3]: < 100 nM

SMILES: CN1CCN(c2nc(-c3cc(F)cc(F)c3)nc(-n3cccn3)n2)CC1 [Compound 80, 2-(3,5-Difluorophenyl)-4-(4-methylpiperazin-1-yl)-6-(1H-pyrazol-1-yl)-1,3,5-triazine]
- Kd [3]: 100 to 500 nM

SMILES: CCOC(=O)CCNc1nc(-c2cc(F)cc(F)c2)nc(-n2cccn2)n1 [Compound 8, Ethyl 3-((4-(3,5-difluorophenyl)-6-(1H-pyrazol-1-yl)-1,3,5-triazin-2-yl)amino)propanoate]
- Kd [3]: < 100 nM

SMILES: CCOC(=O)CCNc1nc(-n2cccn2)nc(-n2cccn2)n1 [Compound 2, Ethyl 3-((4,6-di(1H-pyrazol-1-yl)-1,3,5-triazin-2-yl)amino)propanoate]
- Kd [3]: 100 to 500 nM

SMILES: c1ccc2c(c1)ccn2-c1nc(N2CCNCC2)nc(-n2cccn2)n1 [Compound 90, 1-(4-(Piperazin-1-yl)-6-(1H-pyrazol-1-yl)-1,3,5-triazin-2-yl)-1H-indole]
- Kd [3]: 100 to 500 nM

SMILES: Fc1cc(F)cc(-c2nc(N3CCOCC3)nc(-n3cccn3)n2)c1 [Compound 92, 4-(4-(3,5-Difluorophenyl)-6-(1H-pyrazol-1-yl)-1,3,5-triazin-2-yl)morpholine]
- suppression of TNF-alpha (TNFA) expression after LPS treatment [4]: suppression
- FoxP3 expression levels (induction) [1]: 7 fold
- suppression of TNF-alpha (TNFA) [2]: suppression
- suppression of interleukin 1beta (IL1B) [2]: suppression
- suppression of interleukin 5 (IL5) [2]: suppression
- suppression of interleukin 6 (IL6) [2]: suppression
- suppression of interleukin 8 (IL8) [2]: suppression
- suppression of interleukin 13 (IL13) [2]: suppression
- Kd [3]: 100 to 500 nM

SMILES: NC(=O)CCNc1nc(-n2cccn2)nc(-n2ccc3ccccc32)n1 [Compound 91, 3-((4-(1H-Indol-1-yl)-6-(1H-pyrazol-1-yl)-1,3,5-triazin-2-yl)amino)propanamide]
- suppression of TNF-alpha (TNFA) expression after LPS treatment [4]: suppression
- Kd [3]: 100 to 500 nM

SMILES: COCCCNc1nc(-n2cccn2)nc(-n2ccc3ccccc32)n1 [Compound 97, 4-(1H-Indol-1-yl)-N-(3-methoxypropyl)-6-(1H-pyrazol-1-yl)-1,3,5-triazin-2-amine]
- suppression of TNF-alpha (TNFA) expression after LPS treatment [4]: suppression
- Kd [3]: 100 to 500 nM

SMILES: COCNc1nc(-n2cccn2)nc(-n2ccc3ccccc32)n1 [Compound 98, 4-(1H-indol-1-yl)-N-(methoxymethyl)-6-(1H-pyrazol-1-yl)-1,3,5-triazin-2-amine]
- FoxP3 expression levels (induction) [1]: 7 fold
- suppression of TNF-alpha (TNFA) [2]: suppression
- suppression of interleukin 1beta (IL1B) [2]: suppression
- suppression of interleukin 5 (IL5) [2]: suppression
- suppression of interleukin 6 (IL6) [2]: suppression
- suppression of interleukin 8 (IL8) [2]: suppression
- suppression of interleukin 13 (IL13) [2]: suppression

SMILES: c1ccc2c(c1)ccn2-c1nc(N2CCNC3(COC3)C2)nc(-n2cccn2)n1 [Compound 60, 8-(4-(1H-Indol-1-yl)-6-(1H-pyrazol-1-yl)-1,3,5-triazin-2-yl)-2-oxa-5,8-diazaspiro[3.5]nonane]
- Kd [3]: < 100 nM

SMILES: Fc1cc(F)cc(-c2nc(N3CCC3)nc(-n3cccn3)n2)c1 [Compound 93, 2-(Azetidin-1-yl)-4-(3,5-difluorophenyl)-6-(1H-pyrazol-1-yl)-1,3,5-triazine]
- suppression of TNF-alpha (TNFA) expression after LPS treatment [4]: suppression
- FoxP3 expression levels (induction) [1]: 7 fold
- suppression of TNF-alpha (TNFA) [2]: suppression
- suppression of interleukin 1beta (IL1B) [2]: suppression
- suppression of interleukin 5 (IL5) [2]: suppression
- suppression of interleukin 6 (IL6) [2]: suppression
- suppression of interleukin 8 (IL8) [2]: suppression
- suppression of interleukin 13 (IL13) [2]: suppression
- Kd [3]: < 100 nM

SMILES: CCOC(=O)CCNc1nc(-n2cccn2)nc(-n2ccc3ccccc32)n1 [Compound 6, Ethyl 3-((4-(1H-indol-1-yl)-6-(1H-pyrazol-1-yl)-1,3,5-triazin-2-yl)amino)propanoate]
- Kd [3]: < 100 nM

SMILES: NC(=O)CCNc1nc(-c2cc(F)cc(F)c2)nc(-n2cccn2)n1 [Compound 96, 3-((4-(3,5-Difluorophenyl)-6-(1H-pyrazol-1-yl)-1,3,5-triazin-2-yl)amino)propanamide]
- Kd [3]: 100 to 500 nM

SMILES: c1ccc2c(c1)ccn2-c1nc(N2CCOCC2)nc(-n2cccn2)n1 [Compound 94, 4-(4-(1H-Indol-1-yl)-6-(1H-pyrazol-1-yl)-1,3,5-triazin-2-yl)morpholine]
- suppression of TNF-alpha (TNFA) expression after LPS treatment [4]: suppression
- Kd [3]: 100 to 500 nM

— patent publication US20250188062A1, “TRIAZINE COMPOUNDS AND METHODS OF MAKING AND USING THE SAME” (Athos Therapeutics, Inc., priority 2021, published 2025)
